Among the data in patent publication US20250215016A1, “ISOXAZOLE-HETEROCYCLIC DERIVATIVE, PHARMACEUTICAL COMPOSITION AND USE” (SHANGHAI SIMR BIOTECHNOLOGY CO., LTD, priority 2022, published 2025) are inhibition and Ki values, retold here.

In one assay the target is α5-GABAA receptor (Homo sapiens (Human), UniProt P18507+P31644). The assay is described as follows: Whole-cell patch clamp electrophysiology, inverse regulation activity in α5β3γ2-HEK293 cells. The note with it: compound 100 nM; GABA 0.05-0.06 μM (about EC7-8); clamped at −60 mV; read-out: Inverse regulation efficiency to α5-GABAA receptor. It counts as cell-based. The source says:
α, β and γ subunits are essential for the formation of a complete functional GABAA receptor. […] The specific subunit protein sequences are as follows: α5 subunit (protein sequence can be found in GenBank accession number: NM_000810.3); α2 subunit (protein sequence can be found in GenBank accession number: NM_000807.4); β3 subunit (protein sequence can be found in GenBank accession number: NM_000814.5); γ2 subunit (protein sequence can be found in GenBank accession number: NM_000816.3).
(§1) The above cell lines were subcultured. Amplification of α5β3γ2-HEK293 and α2β3γ2-HEK293 cells was used to test the affinity of the compounds to benzodiazepine site (BZD) of the GABAA receptor. During the passage of α5β3γ2-HEK293 cells, some of the suspended cells were spread on a glass slide pretreated with Poly-D-Lysine for electrophysiological testing.
The inverse regulation activity of the test drugs on α5-GABAA receptor was detected by an electrophysiological method. The specific method was as follows:
Compound concentration setting: the final concentration of the compounds used for compound screening was 100 nM. GABA concentration was 0.05-0.06 μM (about EC7-8). […] The extracellular fluid (ECS) ingredients for electrophysiology were as follows: 150 mM NaCl, 5 mM KCl, 2.5 mM CaCl2, 1 mM MgCl2, 10 mM HEPES and 10 mM glucose (pH 7.4); the electrode internal solution (ICS) formula for electrophysiology was as follows: 140 mM CsCl, 11 mM EGTA, 10 mM HEPES, 2 mM CaCl2, 1 mM MgCl2, 4 mM MgATP, 2 mM TEA (pH 7.3). The above reagents were all purchased from Sigma aldrich. GABA (γ-aminobutyric acid, from sigma aldrich, lot: A5385) powder was prepared into a stock solution with pure water and then diluted in ECS. The compound was first prepared into a 4 mM stock solution with DMSO, and then gradually diluted in corresponding concentrations of GABA-ECS. The solutions were all prepared fresh prior to electrophysiological testing.
Electrophysiological signal acquisition were performed by using EPC 10 amplifier and PatchMaster software (HEKA) or Axon 700 B amplifier and Clampex software (AXON). The recording electrode was made by drawing borosilicate glass (purchased from sutter), and has an electrode resistance of 4˜6 MΩ. Extracellular administration was carried out using ALA-VC-8PG (purchased from ALA, USA) system. A single independently grown cell was selected, and lysis was performed after the glass electrode and the cell forming a good seal, to form a whole cell mode. With the cellular membrane potential clamped at −60 mV, recording was carried out in the Gap-free mode. For the test, extracellular fluid was first applied extracellularly for about 20 seconds. After baseline (Iprebaseline) was stabilized, the extracellular fluid was switched to GABA-ECS. At this time, the current (Igaba) caused by GABA can be detected. At about 20-40 seconds, after the current stabilized, the extracellular fluid was switched to a mixed solution of the compound and GABA-ECS, until the current (Itreatment) caused by both the compound and GABA can be detected. Finally, the solution was switched to the extracellular fluid and the test was terminated after recording for 20-40 seconds.
The experimental results were analyzed using PatchMaster v2x90.1 or PatchMaster v2x90.3 software (EPC 10 amplifier) and Clampex10.6 software (Axon700B amplifier). The current value of each stage was calculated according to the average value of the stabilized current under the corresponding conditions. We defined the control current as Igaba−Iprebaseline, and the current after compound treatment as Itreatment−Iprebaseline. The inverse regulation activity of the compounds is expressed as a percentage and is calculated according to the following formula: Inverse regulation efficiency=[(Itreatment−Igaba)/(Igaba−Iprebaseline)]×100%.
In general terms: In patch-clamp work, channel activity is measured electrically.

Assay [1] deals with human α5β3γ2 receptor (α5-GABAA receptor) (Homo sapiens (Human), UniProt P18507+P31644). As to the kind of experiment: Radioligand (3H-flunitrazepam) competition binding assay, BZD site. The note with it: 3H-flunitrazepam 1 nM; HEK293 membranes expressing human α5β3γ2.
Source text: α, β and γ subunits are essential for the formation of a complete functional GABAA receptor. In this example, HEK293 cell strains stably expressing human α5-GABAA receptor (comprising α5β3γ2 subunit) and α2-GABAA receptor (comprising α2β3γ2 subunit) were constructed and screened, respectively, by liposome transfection method (Felgner, P. L., et al., Proceedings of the National Academy of Sciences, 1987, 84:7413-7417). The specific subunit protein sequences are as follows: α5 subunit (protein sequence can be found in GenBank accession number: NM_000810.3); α2 subunit (protein sequence can be found in GenBank accession number: NM_000807.4); β3 subunit (protein sequence can be found in GenBank accession number: NM_000814.5); γ2 subunit (protein sequence can be found in GenBank accession number: NM_000816.3).
as §1
Flunitrazepam is a non-specific reagent that binds to the BZD site efficiently. The affinity of the compounds to the BZD sites of the human α5β3γ2 and α2β3γ2 receptors can be determined by competing the compound with ^3H-flunitrazepam (isotope ^3H-labeled flunitrazepam) for binding to these two receptors.
Membrane preparation: HEK293 cells stably expressing human α5β3γ2 receptor or α2β3γ2 receptor were collected, suspended in 50 mM Tris-HCl buffer (pH=7.4), homogenized on ice by a homogenizer for 20 seconds 10 times, and centrifuged at 4° C., 1000 g for 10 min. The supernatant was collected, and the above steps were repeated. The supernatant was centrifuged (33800 g; centrifuge purchased from Thermo, rotor model: A27-8×50) at 4° C. for 60 min, and the precipitate was resuspended in Tris buffer (50 mM Tris-HCl, 10 mM MgCl2, 0.5 mM EDTA, 10% glycerol). The precipitate was the cell membrane. Protein content was determined by BCA (Bicinchoninic Acid) method (BCA kit from Pierce (Annoron)). The cell membrane was prepared into 1 ml aliquot and stored at −80° C.
Radioligand competition binding assay: the assay was carried out in a 200 μL system (96-well plate from Agilent) with 100 μL of cell membrane. The concentration of ^3H-flunitazepam (from PerkinElmer, lot: NET567250 UC) was 1 nM and the concentration of test compound was in the range 1×10^−5-10^−6 M. Flumazenil (from Tocris; lot: 1318) was used as a control. 1 μL of 2 mM flumazenil (final concentration 10 μM) was added to the Low signal control well (Low control, LC) and 1 μL of DMSO (from Sigma aldrich, lot: 472301) was added to the High signal control well (High control, HC). The final target membrane protein concentration was 5 μg/well. All test compound sample stocks were 10 mM DMSO solutions. The working concentration of the samples is to dilute all samples with DMSO to 0.2 mM, and then perform 4-fold continuous gradient dilution for a total of 8 concentration gradients. The 96-well plate was sealed with a plate sealing membrane and then incubated on a shaker at room temperature for 1 hour. Meanwhile, GF/C filter plate was soaked with a plate soaking buffer (0.3% PEI, polyethyleneimine, purchased from Sigma aldrich, model: P314, stored at 4° C.) for at least 0.5 hours. After completion of binding incubation, the cells were collected with a cell collector onto the GF/C filter plate and washed four times with a plate washing buffer (50 mM Tris-HCl, pH 7.4, stored at 4° C.). […]

`Cc1onc(-c2ccc(F)cc2)c1COc1ccc(-c2nnn3c2COCC3)cn1` [Compound 1, 3-(6-((3-(4-fluorophenyl)-5-methylisoxazol-4-yl)methoxy)pyridin-3-yl)-6,7-dihydro-4H-[1,2,3]triazolo[5,1-c][1,4]oxazine]: at α5-GABAA receptor, the inhibition at 0.1 µM worked out at 38%. In assay [1], the Ki is 1.2 nM.
`Cc1onc(-c2ccc(F)cc2)c1COc1cnc(N2CCN3CCNC(=O)[C@@H]3C2)cn1` [Compound 6, (S)-8-(5-((3-(4-fluorophenyl)-5-methylisoxazol-4-yl)methoxy)pyrazin-2-yl) hexahydro-2H-pyrazino[1,2-a]pyrazin-1 (6H)-one]: the inhibition at 0.1 µM on α5-GABAA receptor was 16%. The affinity in assay [1] corresponds to a Ki of 103 nM.
As to `Cc1onc(-c2ccc(F)cc2)c1COc1ccc(-c2nnn3c2COCC3)nn1` [Compound 11, 3-(6-((3-(4-fluorophenyl)-5-methylisoxazol-4-yl)methoxy)pyridazin-3-yl)-6,7-dihydro-4H-[1,2,3]triazolo[5,1-c][1,4]oxazine], the inhibition at 0.1 µM at α5-GABAA receptor was 45%. The compound further displayed a Ki in assay [1] of 0.6 nM.
The corresponding values for `CCN1CCn2c(nnc2-c2ccc(OCc3c(-c4ccc(F)cc4)noc3C)nc2)C1=O` [Compound 13, 7-ethyl-3-(6-((3-(4-fluorophenyl)-5-methylisoxazol-4-yl)methoxy)pyridin-3-yl)-6,7-dihydro-[1,2,4]triazolo[4,3-a]pyrazin-8(5H)-one] are 43% and 12.5 nM.
The corresponding values for `Cc1onc(-c2ccc(F)cc2)c1COc1ccc(-c2nnc3n2CCN(C)C3=O)nn1` [Compound 14, 3-(6-((3-(4-fluorophenyl)-5-methylisoxazol-4-yl)methoxy)pyridazin-3-yl)-7-methyl-6,7-dihydro-[1,2,4]triazolo[4,3-a]pyrazin-8(5H)-one] are 49% and 2.5 nM.
The corresponding values for `Cc1onc(-c2ccc(F)cc2)c1COc1ccc(-c2nnc3n2CCC3)nn1` [Compound 22, 4-(((6-(6,7-dihydro-5H-pyrrolo[2,1-c][1,2,4]triazol-3-yl)pyridazin-3-yl)oxy)methyl)-3-(4-fluorophenyl)-5-methylisoxazole] are 50% and 0.54 nM.
Consider `Cc1onc(-c2ccc(F)cc2)c1COc1ccc(-c2nnc3n2CCCO3)cn1` [Compound 25, 3-(6-((3-(4-fluorophenyl)-5-methylisoxazol-4-yl)methoxy)pyridin-3-yl)-6,7-dihydro-5H-[1,2,4]triazolo[3,4-b][1,3]oxazine], for which the inhibition at 0.1 µM at α5-GABAA receptor came to 50%. Further, the Ki in assay [1] worked out at 22.1 nM.
Turning to `Cc1onc(-c2ccc(F)cc2)c1COc1ccc(-c2ncc3n2CCOC3)cn1` [Compound 28, 3-(6-((3-(4-fluorophenyl)-5-methylisoxazol-4-yl)methoxy)pyridin-3-yl)-5,6-dihydro-8H-imidazo[5,1-c][1,4]oxazine], at α5-GABAA receptor, the inhibition at 0.1 µM is 42%. Moreover, the affinity in assay [1] corresponds to a Ki of 32.9 nM.
Consider `Cc1onc(-c2ccc(F)cc2)c1COc1ccc(-c2nnc3n2CCS(=O)(=O)C3)nn1` [Compound 29, 3-(6-((3-(4-fluorophenyl)-5-methylisoxazol-4-yl)methoxy)pyridazin-3-yl)-5,6-dihydro-8H-[1,2,4]triazolo[3,4-c][1,4]thiazine 7,7-dioxide], for which the inhibition at 0.1 µM on α5-GABAA receptor stood at 45%. In assay [1], this compound displayed a Ki of 0.77 nM.
The corresponding values for `Cc1onc(-c2ccc(F)cc2)c1COc1ccc(N2CCn3c(C)nnc3C2)nn1` [Compound 34, 3-(4-fluorophenyl)-5-methyl-4-(((6-(3-methyl-5,6-dihydro-[1,2,4]triazolo[4,3-a]pyrazin-7(8H)-yl)pyridazin-3-yl)oxy)methyl)isoxazole] are 39% and 2.44 nM.
`Cc1onc(-c2ccc(F)cc2)c1COc1ccc(-c2cc3n(c(=O)n2)CC24CC(CN32)C4)cn1` [Compound 39, 3-(6-((3-(4-fluorophenyl)-5-methylisoxazol-4-yl)methoxy)pyridin-3-yl)-7,8-dihydro-1H,6H,9H-7,8a-methanopyrrolo[1′,2′:3,4]imidazo[1,2-c]pyrimidin-1-one]: the inhibition at 0.1 µM at α5-GABAA receptor was 44%. This compound returned a Ki in assay [1] of 6.31 nM.

The term Ki denotes the equilibrium dissociation constant of an inhibitor or competing ligand from its target. A low value points to higher affinity.
